Assay results from US8735443B2, “Method of treating diabetes-related vascular complications” (Kuwait University, priority 2008, dated 2014).
One block for each molecule: values may come before it.

What was measured:
[1] = Cell viability after hydrogen peroxide (Cell Counting Kit-8), diabetic fibroblasts; format: cell-based, rat; conditions: female, Coto Kakizaki (diabetic), rat, primary dermal fibroblasts from diabetic rats (DFs), DFs, 16 hours, read-out: loss in cell viability
Source text: To determine the effect of α-lipoic acid on isolated cells from normal and diabetic rats, primary rat fibroblasts were derived from dorsal skin biopsies performed on four diabetic Coto Kakizaki rats (DFs) and four age-matched (12-14 months) and sex-matched (female) Wistar control rats (CFs). After sterilization in povidine solution, the rat skin was washed in sterile water and rinsed in 70% ethanol in phosphate-buffered saline (PBS). The epidermis and dermis were separated following overnight incubation in 0.25% Trypsin/EDTA at 4° C. Samples were washed, diced and digested for thirty minutes at 37° C. in collagenase type I (250 U/ml) dissolved in Dulbecco's modified Eagle medium (DMEM; Invitrogen) containing penicillin (100 U/ml), 2 mM L-glutamine and 26 mM HEPES. After collagenase treatment, the cells were dislodged, centrifuged and resuspended in medium supplemented with 10% fetal bovine serum. The cells were grown under standard conditions, and the medium was changed every three to four days. Control and diabetic fibroblasts were grown under normo-glycemic conditions (5.5 mM glucose) and used in experiments at passage 3 to 5.
Fibroblasts were seeded at 1×10^4 cells/well on a 96-well plate. After a 24 hour incubation period, the cells were exposed to various concentrations of HP in serum-free medium at 37° C. for 2 hours [lactate dehydrogenase (LDH), a marker for necrotic cell death], or for 16 hours (cell viability). Quantification of cell viability was assessed using a Cell Counting Kit-8 (Dojindo, Kumamoto, Japan). The values obtained were normalized to the vehicle-treated cells. To measure the rate of necrotic cell death, an LDH release assay was performed using a CytoTox-ONE Homogeneous Membrane Integrity Assay kit (Promega). Expression of Nrf2 was inhibited by small-interfering RNA (siRNA) oligonucleotides. The sequences were designed and synthesized by Qiagen. The best silencing efficiency was obtained by incubating 2.0×10^5 cells/well in a 6-well plate with complexes formed by 5 nM siRNA (1 μl) and 9 μL of HiPerfect transfection reagent (Qiagen) dissolved in 90 μl medium, according to the manufacturer's instructions. The transfection was achieved by adding 0.9 ml of medium to the seeded cells followed by 100 μl of siRNA/HiPerfect complex. Knock-out efficiency was verified by real-time PCR and Western blot. Twenty-four hours later, 1 ml of fresh medium was added; 48 hr after transfection the cells were exposed to either vehicle or lipoic acid at a concentration of 500 μM.

aortic tissue = assay: Aortic superoxide production, lucigenin-enhanced chemiluminescence; format: in vivo, rat; conditions: inhibitor added 60 min before; diphenylene iodonium 0.1 mM, apocynin 3 mM
Experimental: In the study, with regard to measurement of vascular superoxide anion formation, O2^− concentration in aortic tissue was determined using a lucigenin-enhanced chemiluminescence method, and the resulting data were further confirmed by a cytochrome c-based technique. Segments of the thoracic aorta were placed into 2 ml Krebs-Henseleit buffer (KHB, pH 7.4), and prewarmed to 37° C. for one hour. Immediately before measurement, rings were transferred to scintillation vials containing KHB with 5 μmol/L lucigenin and the O2^− generated chemiluminescence was recorded for five minutes with a scintillation counter. The amount of O2^− produced was quantified using a standard curve of O2^− generation by xanthine/xanthine oxidase and the data are expressed as nmol per min, per mg, of wet weight. In some experiments, vessels were denuded of endothelium by gentle rubbing of the luminal surface, whereas in others, N^ω-nitro-L-arginine methyl ester (L-NAME) 0.1 mM, diphenylene iodonium 0.1 mM, or apocynin 3 mM were added 60 min before determining O2^− generation.

rat aortic rings = assay: Acetylcholine-induced endothelium dependent relaxation of aortic rings in organ chamber; format: in vivo; conditions: diabetic arteries; apocynin 3×10^−4 mol/l, Tiron 10 mmol/l
Experimental: In the experiments, with regard to the determination of endothelium dependent relaxation (EDR) in the aorta, EDR in response to various concentrations of acetylcholine (Ach) (10^−9 to 10^−6 mol/l) was assessed in norepinephrine (10^−7 mol/l) preconstructed rat aortic rings using an organ chamber bath. The effects of the NAD(P)H oxidase inhibitor apocynin (3×10^−4 mol/l) and the O2^− scavenger Tiron (10 mmol/l) on Ach-induced responses of diabetic arteries were also considered.

NAD(P)H oxidase = NAD(P)H oxidase activity in aortic homogenates (lucigenin photoemission); format: biochemical, rat; conditions: inhibitor added to tissue homogenate
cultured arteries = assay: Cultured arteries of non-diabetic control animals exposed to TNF-α; parameters: species or system rat; conditions: arteries of non-diabetic control animals exposed to TNF-α

Molecule: OO [HP, hydrogen peroxide]
cytotoxicity at 16 h, 37.5 uM ([1]; 37.5 uM HP): 17%
cytotoxicity at 16 h, 50 uM ([1]; 50 uM HP): 55%
cytotoxicity at 16 h, 75 uM ([1]; 75 uM HP): 78%

Molecule: COc1cc(C(C)=O)ccc1O [apocynin]
O2− production of aorta of GK diabetic rats (aortic tissue): inhibited
Ach-induced relaxation in diabetic arteries (rat aortic rings): improved

Molecule: c1ccc2c(c1)[I+]c1ccccc1-2 [diphenyleneiodonium]
O2− production of aorta of GK diabetic rats (aortic tissue): inhibited
reduction of production of O2− in the homogenate (NAD(P)H oxidase): > 95%

Molecule: O=S(=O)(O)c1cc(O)c(O)c(S(=O)(=O)O)c1 [tiron, Tiron]
Ach-induced relaxation in diabetic arteries (rat aortic rings): improved

caspase 3/7 activity (cultured arteries): elevated
Molecule: TNF-α
Ach-induced vasorelaxation (cultured arteries): impaired
levels of DNA fragmentation (cultured arteries): elevated
rate of O2− generation (cultured arteries): elevated
